Test results as given in patent US9693974B2, “Antibacterial and antifungal biphenylyl compounds” (CHRISTIAN-ALBRECHTS-UNIVERSITY OF KIEL, priority 2010, dated 2017).
Values after ≈ are worked out from the molar mass of the structure shown. Where a name gives a salt, the structure may show the parent alone. Read-outs that look alike come from different tables or passages of the source. Values belong to the compound of their own block, whether it stands above or below them.

Columns and labels:
Assay in all cases: MIC, Bouillon-microdilution method (CLSI M07-A8)
Format in all cases: cell-based
[1] = tested on: Staphylococcus aureus ATCC 6538; settings: for MIC: Staphylococcus aureus
Protocol: (§1) The respective determination is valid if in the growth control (DMSO and medium) a distinct turbidity is observed.
(§2) The minimum inhibitory concentrations of the substances of the present inventions against various infectious germs, i.a. against methicillin-resistant Staphylococcus aureus were determined with the Bouillon-microdilution method in accordance with the procedure M07-A8 of the Clinical and Laboratory Standards Institute (Pennsylvania, USA).
(§3) (Source: German Collection of Microorganisms and Cell Cultures, Braunschweig) Enterococcus hirae ATCC 10541, Staphylococcus epidermidis ATCC 12228, Staphylococcus aureus ATCC 6538, methicillin-resistant Staphylococcus aureus ATCC 33592, Bacillus cereus ATCC 11778, Candida albicans ATCC 10231, Aspergillus niger ATCC 16404, Aspergillus fumigatus ATCC 9197.
(§4) In sterile tubes with titled agar, bacteria with casein peptone soy flour peptone agar (Merck, Art. No. 1.05458.05), incubation 18-24 h at 34° C., fungi with Sabouraud 4% Glucose Agar (Merck 1.05438.05), incubation Candida albicans 18-24 h at 34° C., mold fungous 7 days at 22° C.
(§5) Suspensions are produced on titled agar by floating with 0.9% sterile NaCl solution. The turbidity is adjusted photometrically by dilution according to the turbidity of the Mc Farland-standard 0.5.
(§6) Subsequently, the bacterial suspensions are diluted in the ratio of 1:10, the Pi-suspension of the fungi remains undiluted.
(§7) The number of the germs in the inocula is adjusted so that there are approximately 5×10^5 colony forming units per milliliter after inoculation of the test wells.
(§8) The amount of a substance to be tested in a trial is weighed out on a microbalance with an Eppendorf reaction vessel and dissolved in an appropriate volume of dimethyl sulfoxide so that the concentration of the resulting solution corresponds to the 21 times highest final test concentration. The stock solution is subsequently diluted in a serial in a ratio respectively 1 ad 2 with DMSO resulting in seven different concentrations in the wells of a predilution plate. In the eighth well only DMSO is pipetted.
(§9) In each of the 96 wells of a test plate 95 μl sterile Mueller Hinton II medium (Cation adjusted, BBL™ Ref. 212322) for bacteria and sterile Sabouraud 2% glucose medium (DIFCO™ Ref 238230) for fungis are added with an eight-channel pipette (Socorex 50-200 μL). 5 μL of the solution to be tested are pipetted in each of the test wells of the plate (8-channel pipette, Eppendorf-Research, 5-10 μL). They are transferred in this way from the pre-dilutions that in the horizontal row A the highest concentration and respectively a half reduced concentration of the substance to be tested until row G and in row H only DMSO is pipetted. Subsequently, 5 μL of the inocula are pipetted in the test wells using an eight-channel pipette. In one test at least two, maximum four rows are inoculated with the same substance and the same germs. The concentrations of the test substance are each 128 μg/mL to 2 μg/mL.
(§10) The prepared plates are converted to a microtiter plate reader (Anthos ht111) which is connected to a printer. In this device, the plates are shaken for 60 seconds with high frequency before each measurement and the absorption of the probes is measured at the wavelength of light of 590 nm.
(§11) After determination of the initial values the plates are incubated at 34° C. for 16 to 20 h for bacteria and Candida albicans, and 68 to 72 h at 34° C. for mould fungis.
(§12) Following this the micro titer plates are measured again as described above.
(§13) The minimum inhibitory concentration is the lowest concentration of the tested substance which is able to inhibit the complete growth of the particular test organism, i.e. where after incubation no turbidity is measurable. The particular determination is valid when in the growth control (DMSO and medium) a distinct turbidity is observed.

Escherichia coli = settings: read-out: MIC values E.c.
Protocol: as §1, §2, §4, §5, §6, §7, §8
as §9, with “Subsequently, 5 μL of the inocula are pipetted in the test wells using an eight-channel pipette. In one test at least two, maximum four rows are inoculated with the same substance and the same germs. The concentrations of the test substance are each 128 μg/mL to 2 μg/mL.” left out
(§14) The prepared plates are converted to a microtiter plate reader (Anthos ht111) which is connected to a printer. In this device, the plates are shaken for 60 seconds with high frequency before each measurement and the absorption of the probes is measured at the wavelength of light of 590 nm. […]
(§15) Following this the micro titer plates are measured again as described above. […]

Pseudomonas aeroginosa = settings: read-out: MIC values P.a.
Protocol: as §1, §2, §4, §5, §6, §7, §8
as §9, with “Subsequently, 5 μL of the inocula are pipetted in the test wells using an eight-channel pipette. In one test at least two, maximum four rows are inoculated with the same substance and the same germs. The concentrations of the test substance are each 128 μg/mL to 2 μg/mL.” left out
as §14, §15

[2] = tested on: methicillin-resistant Staphylococcus aureus ATCC 33592; settings: for MIC: ATCC 33592 / MRSA, read-out: MIC values MRSA
Protocol: as §1, §2, §3, §4, §5, §6, §7, §8, §9, §10, §11, §12, §13

[3] = tested on: Staphylococcus epidermidis ATCC 12228; settings: ATCC12228, Staphylococcus epidermis, read-out: MIC values S.e.
Protocol: as §1, §2, §3, §4, §5, §6, §7, §8, §9, §10, §11, §12, §13

[4] = tested on: Aspergillus fumigatus ATCC 9197; settings: ATCC9197, read-out: MIC values A.f.
Protocol: as §1, §2, §3, §4, §5, §6, §7, §8, §9, §10, §11, §12, §13

[5] = tested on: Enterococcus hirae ATCC 10541; settings: ATCC10541, read-out: MIC values E.h.
Protocol: as §1, §2, §3, §4, §5, §6, §7, §8, §9, §10, §11, §12, §13

[6] = tested on: Aspergillus niger ATCC 16404; settings: ATCC16404, read-out: MIC values A.n.
Protocol: as §1, §2, §3, §4, §5, §6, §7, §8, §9, §10, §11, §12, §13

[7] = tested on: Candida albicans ATCC 10231
Protocol: as §1, §2, §3, §4, §5, §6, §7, §8, §9, §10, §11, §12, §13

[8] = ATCC6538, number of tests in brackets, rounded average of logarithmic endpoints, read-out: MIC values S.a.
[9] = methicillin-resistant Staphylococcus aureus, number of tests in brackets

MIC value / growth inhibition of Staphylococcus aureus (result in words) ([1]; also after addition of higher concentrations): did not inhibit the growth
Structure (SMILES): Cl.O=C(CCCN1CCN(c2ccccc2)CC1)c1ccc(-c2ccc(Br)cc2)cc1 [4′-(4-bromophenyl)-4-(N-phenylpiperazino)butyrophenone-hydrochloride, reference compound]

MIC (Escherichia coli): > 64 µg/mL | MIC (Pseudomonas aeroginosa): > 64 µg/mL | MIC [1, 8]: 32 µg/mL | MIC [2, 9]: 32 µg/mL | MIC [3]: 16 µg/mL
Structure (SMILES): CN(C)CCC(=O)c1ccc(-c2ccc(Br)cc2)cc1.Cl [GG20-3, reference compound]

MIC (Escherichia coli): > 64 µg/mL | MIC (Pseudomonas aeroginosa): > 64 µg/mL | MIC [1, 8]: 4 to 8 µg/mL | MIC [4]: 8 µg/mL | MIC [2, 9]: 8 µg/mL | MIC [5]: 16 µg/mL | MIC [3]: 4 µg/mL | MIC [6]: 64 µg/mL
Structure (SMILES): CN(C)CCCC(=O)c1ccc(-c2ccc(Br)cc2)cc1.Cl [GG20-4, 4′-(4-bromophenyl)-4-dimethylaminobutyrophenone-hydrochloride]

MIC [1, 8]: 16 µg/mL | MIC [2, 9]: 16 µg/mL | MIC ([7]; ATCC10231, Candida albicans, number of tests in brackets, read-out: MIC values C.a. (Yeast)): 8 µg/mL
Structure (SMILES): CN(C)CCCCC(=O)c1ccc(-c2ccc(Br)cc2)cc1.Cl [GG20-5]

Structure (SMILES): CN(C)CCCCc1ccc(-c2ccc(Br)cc2)cc1 [GG28, 4-bromo-4′-(4-dimethylaminobutyl) biphenyl hydrochloride]
MIC ([1]; ATCC6538, read-out: MIC values S.a.): 13 µg/mL | MIC ([2]; Staphylococcus aureus): 18 µg/mL | MIC ([7]; ATCC10231, read-out: MIC values C.a. (Yeast)): 8 µg/mL

Structure (SMILES): CN(C)[C@@H]1C(=O)C(C(N)=O)=C(O)[C@@]2(O)C(=O)C3=C(O)c4c(O)cccc4[C@@](C)(O)[C@H]3C[C@@H]12 [Tetracyclin, reference compound]
MIC values MRSA [2, 9]: 64 µg/mL (≈ 144 µM)

Structure (SMILES): CN[C@H](CC(C)C)C(=O)N[C@H]1C(=O)N[C@@H](CC(N)=O)C(=O)N[C@H]2C(=O)N[C@H]3C(=O)N[C@H](C(=O)N[C@H](C(=O)O)c4cc(O)cc(O)c4-c4cc3ccc4O)[C@H](O)c3ccc(c(Cl)c3)Oc3cc2cc(c3O[C@@H]2O[C@H](CO)[C@@H](O)[C@H](O)[C@H]2O[C@H]2C[C@](C)(N)[C@H](O)[C@H](C)O2)Oc2ccc(cc2Cl)[C@H]1O [Vancomycin, reference compound]
MIC ([2]; Staphylococcus aureus): < 2 µg/mL
